Laboratory results taken from ChEMBL document CHEMBL1149735, “Stereoselective synthesis and antimalarial activity of alpha-artelinic acid from artemisinin” (J Nat Prod, 1992).
Calls of active or inactive are those of the source. The calls are words filed in the database; no cut-off is given here.

What was measured:
[1] = Toxicity in Swiss mouse; assay type: organism-based; conditions: in vivo
Plasmodium knowlesi [2] = assay: Antimalarial activity as cures at day 50 in Plasmodium knowlesi infected Rhesus monkey assessed at 15 mg/kg intravenous dose for 3 days; assay type: functional, organism-based; design: dose 15 mg/kg
Plasmodium knowlesi [3] = assay: Antimalarial activity as parasite elimination up to day 50 against Plasmodium knowlesi infected Rhesus monkey at 30 mg/kg intravenous dose over 3 days; assay type: functional, organism-based; design: dose 30 mg/kg
Plasmodium knowlesi [4] = assay: Antimalarial activity as parasite elimination after 24 hrs against Plasmodium knowlesi infected Rhesus monkey at 30 mg/kg intravenous dose; assay type: functional, organism-based; design: dose 30 mg/kg

C[C@@H]1[C@H](OCc2ccc(C(=O)O)cc2)O[C@@H]2O[C@@]3(C)CC[C@@H]4[C@@H](C)CC[C@@H]1[C@]24OO3 [ARTELINIC ACID]
LD50 [1]: 1000 mg/kg | Activity (Plasmodium knowlesi [2]): inactive | Activity (Plasmodium knowlesi [3]): Active | Activity (Plasmodium knowlesi [4]): Active
